Assay results from PubChem BioAssay (NCI).
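Briefly, cells in 96-well plates were exposed to five compound concentrations for 48 h, and endpoints were estimated by linear interpolation. The concentration for full growth arrest is given as TGI.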

Key:
Assay in all cases: NCI-60 cell line screen, 48 h
786-0 renal = test system: 786-0 renal
A498 renal = test system: A498 renal
CAKI-1 renal = test system: CAKI-1 renal
CCRF-CEM leukemia = test system: CCRF-CEM leukemia
COLO 205 colon = test system: COLO 205 colon
DLD-1 colon = test system: DLD-1 colon
DMS 114 small cell lung = test system: DMS 114 small cell lung
DMS 273 small cell lung = test system: DMS 273 small cell lung
HCC-2998 colon = test system: HCC-2998 colon
HCT-116 colon = test system: HCT-116 colon
HL-60(TB) leukemia = test system: HL-60(TB) leukemia
HOP-62 NSCLC = test system: HOP-62 NSCLC
HOP-92 NSCLC = test system: HOP-92 NSCLC
IGROV1 ovarian = test system: IGROV1 ovarian
K-562 leukemia = test system: K-562 leukemia
LXFL 529 NSCLC = test system: LXFL 529 NSCLC
M14 melanoma = test system: M14 melanoma
M19-MEL melanoma = test system: M19-MEL melanoma
MALME-3M melanoma = test system: MALME-3M melanoma
MOLT-4 leukemia = test system: MOLT-4 leukemia
NCI-H226 lung = test system: NCI-H226 lung
NCI-H23 lung = test system: NCI-H23 lung
NCI-H460 lung = test system: NCI-H460 lung
NCI-H522 lung = test system: NCI-H522 lung
OVCAR-4 ovarian = test system: OVCAR-4 ovarian
RPMI-8226 leukemia = test system: RPMI-8226 leukemia
SF-268 CNS = test system: SF-268 CNS
SF-539 CNS = test system: SF-539 CNS
SK-MEL-2 melanoma = test system: SK-MEL-2 melanoma
SK-MEL-28 melanoma = test system: SK-MEL-28 melanoma
SK-OV-3 ovarian = test system: SK-OV-3 ovarian
SN12C renal = test system: SN12C renal
SNB-75 CNS = test system: SNB-75 CNS
SNB-78 CNS = test system: SNB-78 CNS
SR leukemia = test system: SR leukemia
UACC-62 melanoma = test system: UACC-62 melanoma
UO-31 renal = test system: UO-31 renal
XF 498 CNS = test system: XF 498 CNS
A549 NSCLC = test system: A549 NSCLC
ACHN renal = test system: ACHN renal
EKVX NSCLC = test system: EKVX NSCLC
HCT-15 colon = test system: HCT-15 colon
HT29 colon = test system: HT29 colon
KM12 colon = test system: KM12 colon
KM20L2 colon = test system: KM20L2 colon
LOX IMVI melanoma = test system: LOX IMVI melanoma
OVCAR-3 ovarian = test system: OVCAR-3 ovarian
OVCAR-5 ovarian = test system: OVCAR-5 ovarian
OVCAR-8 ovarian = test system: OVCAR-8 ovarian
RXF 393 renal = test system: RXF 393 renal
SF-295 CNS = test system: SF-295 CNS
SK-MEL-5 melanoma = test system: SK-MEL-5 melanoma
SNB-19 CNS = test system: SNB-19 CNS
SW-620 colon = test system: SW-620 colon
TK-10 renal = test system: TK-10 renal
U251 CNS = test system: U251 CNS
UACC-257 melanoma = test system: UACC-257 melanoma
HOP-18 NSCLC = test system: HOP-18 NSCLC
DU-145 prostate = test system: DU-145 prostate
HS 578T breast = test system: HS 578T breast
MCF7 breast = test system: MCF7 breast
MDA-MB-231 breast = test system: MDA-MB-231 breast
MDA-MB-435 = test system: MDA-MB-435
MDA-N = test system: MDA-N
NCI/ADR-RES ovarian = test system: NCI/ADR-RES ovarian
PC-3 prostate = test system: PC-3 prostate

Measured: TGI

CCNC1CC(n2cc(C)c(=O)[nH]c2=O)OC1CO (centres undefined)
not listed: A549 NSCLC | ACHN renal | EKVX NSCLC | HCT-15 colon | HT29 colon | KM12 colon | KM20L2 colon | LOX IMVI melanoma | OVCAR-3 ovarian | OVCAR-5 ovarian | OVCAR-8 ovarian | RXF 393 renal | SF-295 CNS | SK-MEL-5 melanoma | SNB-19 CNS | SW-620 colon | TK-10 renal | U251 CNS | UACC-257 melanoma | HOP-18 NSCLC | DU-145 prostate | HS 578T breast | MCF7 breast | MDA-MB-231 breast | MDA-MB-435 | MDA-N | NCI/ADR-RES ovarian | PC-3 prostate
> 100 µM: all other assays above

COc1cccc(C=NC23CC4CC(CC(C4)C2)C3)c1
not listed: DLD-1 colon | DMS 114 small cell lung | LXFL 529 NSCLC | XF 498 CNS | HOP-18 NSCLC | DU-145 prostate | HS 578T breast | MCF7 breast | MDA-MB-231 breast | MDA-MB-435 | MDA-N | NCI/ADR-RES ovarian | PC-3 prostate
> 100 µM: all other assays above

C/C(=C\c1ccccc1)C(=O)c1c(C)cc(C)cc1C
not listed: A498 renal | DMS 273 small cell lung | HCC-2998 colon | SNB-78 CNS | LOX IMVI melanoma | OVCAR-5 ovarian | DU-145 prostate | HS 578T breast | MCF7 breast | MDA-MB-231 breast | MDA-MB-435 | MDA-N | NCI/ADR-RES ovarian | PC-3 prostate
> 100 µM: all other assays above

BrCc1ccc2ccc3ccc(CBr)nc3c2n1
20.2 µM: NCI-H460 lung
29.3 µM: KM20L2 colon
6.69 µM: SNB-75 CNS
5.75 µM: PC-3 prostate
6.86 µM: MDA-MB-231 breast
> 28.4 µM: K-562 leukemia
4.57 µM: UO-31 renal
19 µM: U251 CNS
7.58 µM: 786-0 renal
3.21 µM: LOX IMVI melanoma
> 37.8 µM: UACC-62 melanoma
4.87 µM: MCF7 breast
8.16 µM: SK-MEL-5 melanoma
12.3 µM: OVCAR-4 ovarian
4.18 µM: HCT-15 colon
22.6 µM: EKVX NSCLC
27.1 µM: OVCAR-5 ovarian
8.73 µM: HCC-2998 colon
8.38 µM: A498 renal
9.04 µM: SF-268 CNS
6.02 µM: SK-MEL-28 melanoma
15.7 µM: OVCAR-8 ovarian
3.19 µM: LXFL 529 NSCLC
4.43 µM: SNB-78 CNS
14.7 µM: KM12 colon
5.28 µM: HL-60(TB) leukemia
> 100 µM: RPMI-8226 leukemia
4.3 µM: COLO 205 colon
10.8 µM: IGROV1 ovarian
4.69 µM: RXF 393 renal
5.15 µM: NCI/ADR-RES ovarian
71.3 µM: HS 578T breast
19.5 µM: SNB-19 CNS
15 µM: NCI-H226 lung | SK-MEL-2 melanoma
34.7 µM: A549 NSCLC
16.6 µM: MDA-MB-435
3.43 µM: OVCAR-3 ovarian
21 µM: HOP-62 NSCLC
4.55 µM: SN12C renal
4.04 µM: HOP-92 NSCLC
3.75 µM: CCRF-CEM leukemia
5.58 µM: ACHN renal
14.1 µM: M19-MEL melanoma | UACC-257 melanoma
21.7 µM: DU-145 prostate
8.79 µM: M14 melanoma
6.7 µM: HCT-116 colon
12.7 µM: CAKI-1 renal | MDA-N
5.54 µM: SR leukemia
3.34 µM: DMS 273 small cell lung
11 µM: SF-539 CNS
15.4 µM: DMS 114 small cell lung
5.86 µM: SW-620 colon
28.6 µM: SF-295 CNS
5.48 µM: HOP-18 NSCLC
4.61 µM: HT29 colon
4.66 µM: MOLT-4 leukemia
5.72 µM: TK-10 renal
19.4 µM: NCI-H23 lung
